From patent US6635771B2, “N-benzhydryl indole compounds” (Wyeth, priority 2001, dated 2003)

Molecular target: T1, cPLA2 (Homo sapiens, UniProt P47712)
T1 sequence (P47712 1-749): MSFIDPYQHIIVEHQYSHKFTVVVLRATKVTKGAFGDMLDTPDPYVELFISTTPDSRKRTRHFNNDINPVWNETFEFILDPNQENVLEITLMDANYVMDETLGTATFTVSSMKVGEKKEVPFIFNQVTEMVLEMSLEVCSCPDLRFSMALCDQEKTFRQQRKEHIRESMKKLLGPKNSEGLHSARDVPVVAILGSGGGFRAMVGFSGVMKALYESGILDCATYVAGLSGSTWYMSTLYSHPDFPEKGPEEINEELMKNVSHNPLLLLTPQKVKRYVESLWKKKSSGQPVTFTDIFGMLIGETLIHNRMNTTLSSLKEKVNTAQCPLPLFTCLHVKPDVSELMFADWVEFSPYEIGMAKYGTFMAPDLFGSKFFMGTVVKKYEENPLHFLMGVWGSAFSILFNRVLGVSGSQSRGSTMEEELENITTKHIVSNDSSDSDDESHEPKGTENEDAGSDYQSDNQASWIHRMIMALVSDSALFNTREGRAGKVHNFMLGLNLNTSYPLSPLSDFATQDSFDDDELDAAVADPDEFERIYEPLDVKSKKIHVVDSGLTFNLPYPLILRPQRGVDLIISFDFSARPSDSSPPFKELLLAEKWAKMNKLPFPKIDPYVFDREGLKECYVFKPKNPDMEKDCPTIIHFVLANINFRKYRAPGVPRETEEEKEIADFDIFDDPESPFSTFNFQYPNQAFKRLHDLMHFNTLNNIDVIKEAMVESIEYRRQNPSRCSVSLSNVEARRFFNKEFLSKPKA
Assay: Coumarine Assay
Format: biochemical
Conditions: 60 μM 7-hydroxycoumarinyl 6-heptenoate substrate, 4 μg cPLA2, pH 7.5, fluorescence ex 360 nm / em 460 nm; read-out: Coumarin IC50

Row | IC50 | Structure (SMILES)
1 | 200 nM | O=C(O)c1ccc(S(=O)(=O)CCc2c(CCNS(=O)(=O)Cc3ccc(Cl)c(Cl)c3)n(C(c3ccccc3)c3ccccc3)c3ccc(Cl)cc23)cc1 [Example 140, 4-({2-[1-benzhydryl-5-chloro-2-(2-{[(3,4-dichlorobenzyl)sulfonyl]amino}ethyl)1H-indol-3-yl]ethyl}sulfonyl)benzoic acid]
2 | 170 nM | Cc1cccc(C)c1CS(=O)(=O)NCCc1c(CCS(=O)(=O)c2ccc(C(=O)O)cc2)c2cc(Cl)ccc2n1C(c1ccccc1)c1ccccc1 [Example 141, 4-({2-[1-benzhydryl-5-chloro-2-(2-{[(2,6-dimethylbenzyl)sulfonyl]amino}ethyl) 1H-indol-3-yl]ethyl}sulfonyl)benzoic acid]
